Measured values taken from article PMC7217150, “Synthesis, Modification, and Biological Evaluation of a Library of Novel Water‐Soluble Thiopyridone‐Based Organometallic Complexes and Their Unexpected (Biological) Behavior” (Chemistry (Weinheim an Der Bergstrasse, Germany), 2020).

Experiments:
Format in all cases: cell-based, human
[1] = tested on: CH1/PA‐1; assay: Cell cycle distribution, flow cytometry with propidium iodide; conditions: for Cell cycle distribution G1, % / Cell cycle distribution G2/M, % / Cell cycle distribution S, %: 24 h, mean ± SD; for Relative change in cell cycle distribution G1, % / Relative change in cell cycle distribution G2/M, % / Relative change in cell cycle distribution S, %: difference to untreated control
Procedure: (§1) The influence of two ligands, as well as seven complexes on cell cycle distribution was tested in two of the cancer cell lines (SW480, CH1/PA‐1) by means of flow cytometry. The cell cycle distribution (G1, S, G2/M phase in %; Table S37) was investigated upon DNA staining with propidium iodide.
(§2) CH1/PA‐1 and SW480 cells were harvested by trypsinization, 8×10^4 and 1.2×10^5 cells per well were seeded into 12‐well plates, respectively. The cells were allowed to attach and resume proliferation for 24 h after the seeding. […] After continuous exposure for 24 h at 37 °C and under 5 % CO2, the cells were harvested by trypsinization and centrifuged at 300 g for 3 min. The cells were washed with PBS (1 mL) and resuspended in propidium iodine (PI) containing HSF buffer (600 μL; 0.1 % Triton X‐100, 0.1 % sodium citrate, 50 μg mL^−1 PI in PBS). After incubation overnight at 4 °C in the dark, 5×10^3 cells were measured by flow cytometry with a Millipore Guava easyCyte 8HT instrument (Luminex, USA). Data were evaluated by means of FlowJo software (Tree Star) using Watson Pragmatic algorithms.60 The fitting of the curve was chosen to keep the root mean square error between 1.0 and 2.0, alongside with good fitting visual model.

[2] = tested on: SW480; assay: as above; conditions: for Cell cycle distribution G1, % / Cell cycle distribution G2/M, % / Cell cycle distribution S, %: 24 h, mean ± SD; for Relative change in cell cycle distribution G1, % / Relative change in cell cycle distribution G2/M, % / Relative change in cell cycle distribution S, %: difference to untreated control
Procedure: as §1, §2

[3] = tested on: CH1/PA‐1; assay: MTT cytotoxicity assay, monolayer culture; conditions: CH1/PA‐1, MTT assay, exposure time 96 h, means ± SDs
Text: (§3) A549 (non‐small cell lung carcinoma), SW480 and HCT‐116 (both colon carcinoma) were kindly provided by Brigitte Marian, Institute of Cancer Research, Department of Medicine I, Medical University of Vienna, Austria. The cell line CH1/PA‐1 (ovarian teratocarcinoma) was kindly provided by Lloyd R. Kelland (CRC Centre for Cancer Therapeutics, Institute of Cancer Research, Sutton, UK). All cell culture media (including supplements) and reagents were obtained from Sigma–Aldrich, and all plasticware from StarLab, unless indicated otherwise.

[4] = tested on: SW480; assay: MTT cytotoxicity assay, monolayer culture; conditions: SW480, MTT assay, exposure time 96 h, means ± SDs
Text: as §3

[5] = tested on: A549; assay: MTT cytotoxicity assay, monolayer culture; conditions: exposure time 96 h, means ± SDs
Text: as §3

With `Cc1c(O)c(=S)ccn1C` [Compound 2 a, 3‐hydroxy‐1,2‐dimethylpyridine‐4(1H)‐thione] the “Cell cycle distribution G1, %” value ([1]; CH1/PA-1, 5 µM) was 33 ± 4%, the “Cell cycle distribution G2/M, %” value ([1]; CH1/PA-1, 5 µM) was 27 ± 5% and the “Cell cycle distribution S, %” value ([1]; CH1/PA-1, 5 µM) was 40 ± 3%. The “Relative change in cell cycle distribution G1, %” value ([1]; CH1/PA-1, 5 µM) was -7%, the “Relative change in cell cycle distribution G2/M, %” value ([1]; CH1/PA-1, 5 µM) was 3% and the “Relative change in cell cycle distribution S, %” value ([1]; CH1/PA-1, 5 µM) was 4%. The “Cell cycle distribution G1, %” value ([1]; CH1/PA-1, 10 µM) was 33 ± 4%, the “Cell cycle distribution G2/M, %” value ([1]; CH1/PA-1, 10 µM) was 26 ± 6% and the “Cell cycle distribution S, %” value ([1]; CH1/PA-1, 10 µM) was 41 ± 8%. The “Relative change in cell cycle distribution G1, %” value ([1]; CH1/PA-1, 10 µM) was -7%, the “Relative change in cell cycle distribution G2/M, %” value ([1]; CH1/PA-1, 10 µM) was 2% and the “Relative change in cell cycle distribution S, %” value ([1]; CH1/PA-1, 10 µM) was 5%. For the same compound, the “Cell cycle distribution G1, %” value ([1]; CH1/PA-1, 20 µM) was 35 ± 3%, the “Cell cycle distribution G2/M, %” value ([1]; CH1/PA-1, 20 µM) was 28 ± 4% and the “Cell cycle distribution S, %” value ([1]; CH1/PA-1, 20 µM) was 37 ± 9%. The “Relative change in cell cycle distribution G1, %” value ([1]; CH1/PA-1, 20 µM) was -5%, the “Relative change in cell cycle distribution G2/M, %” value ([1]; CH1/PA-1, 20 µM) was 4% and the “Relative change in cell cycle distribution S, %” value ([1]; CH1/PA-1, 20 µM) was 1%. For the same compound, the “Cell cycle distribution G1, %” value ([2]; SW480, 5 µM) was 45 ± 1%, the “Cell cycle distribution G2/M, %” value ([2]; SW480, 5 µM) was 23 ± 0% and the “Cell cycle distribution S, %” value ([2]; SW480, 5 µM) was 32 ± 2%. For the same compound, the “Relative change in cell cycle distribution G1, %” value ([2]; SW480, 5 µM) was -3%, the “Relative change in cell cycle distribution G2/M, %” value ([2]; SW480, 5 µM) was 4% and the “Relative change in cell cycle distribution S, %” value ([2]; SW480, 5 µM) was -1%. The “Cell cycle distribution G1, %” value ([2]; SW480, 10 µM) was 41 ± 1%, the “Cell cycle distribution G2/M, %” value ([2]; SW480, 10 µM) was 24 ± 1% and the “Cell cycle distribution S, %” value ([2]; SW480, 10 µM) was 35 ± 2%. For the same compound, the “Relative change in cell cycle distribution G1, %” value ([2]; SW480, 10 µM) was -7%, the “Relative change in cell cycle distribution G2/M, %” value ([2]; SW480, 10 µM) was 5% and the “Relative change in cell cycle distribution S, %” value ([2]; SW480, 10 µM) was 2%. For the same compound, the “Cell cycle distribution G1, %” value ([2]; SW480, 20 µM) was 44 ± 3%, the “Cell cycle distribution G2/M, %” value ([2]; SW480, 20 µM) was 22 ± 2% and the “Cell cycle distribution S, %” value ([2]; SW480, 20 µM) was 33 ± 2%. The “Relative change in cell cycle distribution G1, %” value ([2]; SW480, 20 µM) was -4%, the “Relative change in cell cycle distribution G2/M, %” value ([2]; SW480, 20 µM) was 3% and the “Relative change in cell cycle distribution S, %” value ([2]; SW480, 20 µM) was 0%. For the same compound, the IC50 ([3]; Homo sapiens) was 15000 ± 1000 nM, the IC50 ([4]; Homo sapiens) was 3200 ± 300 nM and the IC50 ([5]; Homo sapiens) was 66000 ± 6000 nM.
For `CC1=C2[O][Rh+]([Cl])[S]=C2C=CN1c1cccc2ccccc12.Cc1c(C)c(C)[c-](C)c1C` [Compound 5 d, Chlorido[1‐(naphthalene‐1‐yl)‐2‐methyl‐3‐oxo‐κO‐pyridine‐4(1H)‐thionato‐κS](η^5‐1,2,3,4,5‐pentamethylcyclopentadienyl)rhodium(III)], the “Cell cycle distribution G1, %” value ([1]; CH1/PA-1, 1.25 µM) was 40 ± 10%, the “Cell cycle distribution G2/M, %” value ([1]; CH1/PA-1, 1.25 µM) was 16 ± 9% and the “Cell cycle distribution S, %” value ([1]; CH1/PA-1, 1.25 µM) was 44 ± 3%. The “Relative change in cell cycle distribution G1, %” value ([1]; CH1/PA-1, 1.25 µM) was 0%, the “Relative change in cell cycle distribution G2/M, %” value ([1]; CH1/PA-1, 1.25 µM) was -8% and the “Relative change in cell cycle distribution S, %” value ([1]; CH1/PA-1, 1.25 µM) was 8%. For the same compound, the “Cell cycle distribution G1, %” value ([1]; CH1/PA-1, 2.5 µM) was 38 ± 5%, the “Cell cycle distribution G2/M, %” value ([1]; CH1/PA-1, 2.5 µM) was 27 ± 8% and the “Cell cycle distribution S, %” value ([1]; CH1/PA-1, 2.5 µM) was 36 ± 7%. For the same compound, the “Relative change in cell cycle distribution G1, %” value ([1]; CH1/PA-1, 2.5 µM) was -2%, the “Relative change in cell cycle distribution G2/M, %” value ([1]; CH1/PA-1, 2.5 µM) was 3% and the “Relative change in cell cycle distribution S, %” value ([1]; CH1/PA-1, 2.5 µM) was 0%. The “Cell cycle distribution G1, %” value ([1]; CH1/PA-1, 5 µM) was 39 ± 6%, the “Cell cycle distribution G2/M, %” value ([1]; CH1/PA-1, 5 µM) was 22 ± 5% and the “Cell cycle distribution S, %” value ([1]; CH1/PA-1, 5 µM) was 40 ± 2%. The “Relative change in cell cycle distribution G1, %” value ([1]; CH1/PA-1, 5 µM) was -1%, the “Relative change in cell cycle distribution G2/M, %” value ([1]; CH1/PA-1, 5 µM) was -2% and the “Relative change in cell cycle distribution S, %” value ([1]; CH1/PA-1, 5 µM) was 4%. The “Cell cycle distribution G1, %” value ([2]; SW480, 2.5 µM) was 38 ± 12%, the “Cell cycle distribution G2/M, %” value ([2]; SW480, 2.5 µM) was 22 ± 8% and the “Cell cycle distribution S, %” value ([2]; SW480, 2.5 µM) was 40 ± 3%. The “Relative change in cell cycle distribution G1, %” value ([2]; SW480, 2.5 µM) was -10%, the “Relative change in cell cycle distribution G2/M, %” value ([2]; SW480, 2.5 µM) was 3% and the “Relative change in cell cycle distribution S, %” value ([2]; SW480, 2.5 µM) was 7%. For the same compound, the “Cell cycle distribution G1, %” value ([2]; SW480, 5 µM) was 43 ± 10%, the “Cell cycle distribution G2/M, %” value ([2]; SW480, 5 µM) was 20 ± 3% and the “Cell cycle distribution S, %” value ([2]; SW480, 5 µM) was 37 ± 8%. The “Relative change in cell cycle distribution G1, %” value ([2]; SW480, 5 µM) was -5%, the “Relative change in cell cycle distribution G2/M, %” value ([2]; SW480, 5 µM) was 1% and the “Relative change in cell cycle distribution S, %” value ([2]; SW480, 5 µM) was 4%. For the same compound, the “Cell cycle distribution G1, %” value ([2]; SW480, 10 µM) was 48 ± 10%, the “Cell cycle distribution G2/M, %” value ([2]; SW480, 10 µM) was 18 ± 1% and the “Cell cycle distribution S, %” value ([2]; SW480, 10 µM) was 34 ± 9%. The “Relative change in cell cycle distribution G1, %” value ([2]; SW480, 10 µM) was 0%, the “Relative change in cell cycle distribution G2/M, %” value ([2]; SW480, 10 µM) was -1% and the “Relative change in cell cycle distribution S, %” value ([2]; SW480, 10 µM) was 1%. The IC50 [3] was 480 ± 60 nM, the IC50 [4] was 1000 ± 100 nM and the IC50 [5] was 1300 ± 200 nM.
